From paper PMC10927086, “Effects of structurally distinct human HDAC6 and HDAC6/HDAC8 inhibitors against S. mansoni larval and adult worm stages” (PLOS Neglected Tropical Diseases, 2024)
Like-named read-outs stand apart in the source and are kept apart here.

How the values were obtained:
[1] = system: S. mansoni eggs laid by worm pairs; test: Egg counts and egg maturation staging (Vogel and Prata) in vitro; type: cell-based, Schistosoma mansoni; settings: for percent of eggs that are viable at the given maturation stage at 20 µM / percent of eggs that are viable at the given maturation stage at 50 µM: Schistosoma mansoni
Text: The eggs produced by worm pairs in vitro were counted at day 3 upon treatment using an inverted Leica DM IL microscope (Leica Microsystems, Wetzlar, Germany). Images were captured with a BX41 Olympus (Olympus, Tokyo, Japan) microscope and a brightfield objective 10× served by an Olympus DP23 microscope digital camera and visualized using “CellSens Entry” software (version 3.1.1). Egg maturation morphological score was assigned based on the Vogel and Prata’s staging system of egg maturation previously reported.
Therefore at 72 h upon worm pairs treatment the eggs were counted and classified by microscopic observation according to the Vogel and Prata staging system of egg maturation and grouped as immature (stages I and II), intermediate/developed (stages III–V), viable or damaged eggs.
Panel B. Histograms represent the percentages of eggs at different maturation stages +/- SEM counted at 72 h after treatment; 5–6 microscopy images of at least 3 independent experiments were analyzed. Filled red triangles indicate viable eggs at stages I–II (immature); empty red triangles indicate damaged/morphological abnormal eggs at stages I–II (immature); filled red arrows indicate viable eggs at stages III–V (intermediate/developed); empty red arrows indicate damaged/morphological abnormal eggs at stages III-V; ef, egg fragments; sp, sperm cells; oc, oocyte. Scale Bars = 200 μm.

[2] = system: adult S. mansoni worm pairs (ovary, ootype, vitellarium, gut); test: Carmine-red staining and confocal laser scanning microscopy of adult worm pairs; type: cell-based, Schistosoma mansoni; settings: 72 h
Experimental: Carmine Red staining was performed as previously described. […] Images were collected as a single stack.
To characterize the phenotypic alterations induced by compound treatment in more detail, carmine-red staining, followed by confocal laser scanning microscopy (CLSM) analysis was performed (Fig 5). Sublethal doses of compounds were chosen to preserve the overall parasite viability and pairing. For each compound, 3–5 couples in two independent experiments were analyzed and images of ootype, ovary, vitellarium, testis, gut, and parenchyma were recorded. […] The vitellarium retains a preserved structure in all analyzed samples. […] Accumulation of carmine-red positive particle aggregates was also present in the lumen of the NF2839-treated male worms (Fig 5).
Fig 5 Confocal microscopy of carmine-red stained adult worm pairs treated with quinolone-based HDAC inhibitors. […] The ovary, ootype and gut are shown. Immature oocytes (io), mature oocytes (mo), ootype (ot) and gastrodermis (ga) are labeled. In the Figure, red filled triangles indicate degenerated mo; empty red triangles indicate egg fragments in the ootypes; asterisks indicate deformed egg in the ootype and carmine red aggregates in the gut lumen, filled red arrows indicate the ga in the gut. Scale bars: 50 μm.

[3] = 72 h, NF2839 5 and 10 μM, NF2836 20 and 50 μM

## Cn1c(=O)c(OCc2ccc(C(=O)NO)cc2)c(C2CCCCC2)c2ccccc21 [NF2836]
[1]; 20 µM, exp.1
  % Stage I/II damaged: 97.1%
  %Stage III/IV/V damaged: 0%
  Stage I/II damaged counts: 608
  Stage I/II viable (egg counts): 18
  Stage II/IV/V viable (egg counts): 0
  Stage III/IV/V damaged (egg counts): 0
  egg counts: 626
[1]; 20 µM, exp.2
  % Stage I/II damaged: 16.0%
  %Stage III/IV/V damaged: 0%
  Stage I/II damaged counts: 76
  Stage I/II viable (egg counts): 378
  Stage II/IV/V viable (egg counts): 19
  Stage III/IV/V damaged (egg counts): 0
[1]; 20 µM, exp.3
  % Stage I/II damaged: 79.8%
  %Stage III/IV/V damaged: 0%
  Stage I/II damaged counts: 408
  Stage I/II viable (egg counts): 103
  Stage II/IV/V viable (egg counts): 0
  Stage III/IV/V damaged (egg counts): 0
  egg counts: 511
[1]; 20 µM, mean of experiments
  % Stage I/II damaged, Media: 64.3%
  %Stage III/IV/V damaged, Media: 0%
[1]; 50 µM, exp.1
  % Stage I/II damaged: 99.8%
  %Stage III/IV/V damaged: 0%
  Stage I/II damaged counts: 448
  Stage I/II viable (egg counts): 1
  egg counts: 449
[1]; 50 µM, exp.2
  % Stage I/II damaged: 92.6%
  %Stage III/IV/V damaged: 0%
  Stage I/II damaged counts: 287
  Stage I/II viable (egg counts): 23
  egg counts: 310
[1]; 50 µM, mean of experiments
  % Stage I/II damaged, Media: 96.2%
  %Stage III/IV/V damaged, Media: 0%
[1]; [3]
  egg damage / viability: eggs appeared seriously damaged and not viable
  egg maturation (Vogel and Prata staging): essentially all eggs were arrested in stage I/II
  number of eggs laid by worm pairs: did not observe a decrease in the number of eggs
[1]; 20 µM, exp.1, read-out: % Stage I/II viable
  percent of eggs that are viable at the given maturation stage at 20 µM: 2.9%
[1]; 20 µM, exp.1, read-out: %Stage II/IV/V viable
  percent of eggs that are viable at the given maturation stage at 20 µM: 0%
[1]; 20 µM, exp.2, read-out: % Stage I/II viable
  percent of eggs that are viable at the given maturation stage at 20 µM: 79.6%
[1]; 20 µM, exp.2, read-out: %Stage II/IV/V viable
  percent of eggs that are viable at the given maturation stage at 20 µM: 4%
[1]; 20 µM, exp.3, read-out: % Stage I/II viable
  percent of eggs that are viable at the given maturation stage at 20 µM: 20.2%
[1]; 20 µM, exp.3, read-out: %Stage II/IV/V viable
  percent of eggs that are viable at the given maturation stage at 20 µM: 0%
[1]; 20 µM, mean of experiments, read-out: % Stage I/II viable, Media
  percent of eggs that are viable at the given maturation stage at 20 µM: 34.2%
[1]; 20 µM, mean of experiments, read-out: %Stage II/IV/V viable, Media
  percent of eggs that are viable at the given maturation stage at 20 µM: 1.3%
[1]; 50 µM, exp.1, read-out: % Stage I/II viable
  percent of eggs that are viable at the given maturation stage at 50 µM: 0.223%
[1]; 50 µM, exp.1, read-out: %Stage II/IV/V viable
  percent of eggs that are viable at the given maturation stage at 50 µM: 0%
[1]; 50 µM, exp.2, read-out: % Stage I/II viable
  percent of eggs that are viable at the given maturation stage at 50 µM: 7.4%
[1]; 50 µM, exp.2, read-out: %Stage II/IV/V viable
  percent of eggs that are viable at the given maturation stage at 50 µM: 0%
[1]; 50 µM, mean of experiments, read-out: % Stage I/II viable, Media
  percent of eggs that are viable at the given maturation stage at 50 µM: 3.8%
[1]; 50 µM, mean of experiments, read-out: %Stage II/IV/V viable, Media
  percent of eggs that are viable at the given maturation stage at 50 µM: 0%
[2]; 50 uM
  samples with decrease of cellularity in the ovary mature compartment: 5/11
[2]; higher concentration (NF2836 50 μM, NF2839 10 μM)
  ootype content: either an empty ootype or no properly developed eggs and/or egg fragments
[2]; higher concentration (NF2836 50 μM, NF2839 10 μM), all worms, in particular males
  gut morphology: gut dilation with a dramatic decrease in the number of surface amplification and lumen epithelial thinning
[2]; lower concentrations (NF2836 20 μM, NF2839 5 μM)
  ootype containing damaged eggs: 5/7
[2]; sublethal doses
  overall morphology of the ovary: seemed not to be affected
